Results taken from patent publication US20200323986A1, “HYDROPHOBIC ARENESULFONATE SALTS” (Theracaine LLC, priority 2017, published 2020).

Legend:
[1] = Pharmacokinetics of caine anesthetic salt particles after a single subcutaneous dose (plasma drug concentration versus time); settings: rat; for initial spike in bupivacaine plasma concentration: single subcutaneous dose, 650 μm particles in PEG200, Groups 1 and 2; for delivery of lidocaine over time (plasma lidocaine concentration versus time) / initial spike in plasma lidocaine concentration: in vivo, sc
Experimental: (§1) The test articles are drug compositions consisting of B-4BrBSA-650, B-35BrBSA-650, L-4BrBSA-650, and L-35BrBSA-650 particles in a polyethylene glycol 200 vehicle (PEG200; Sigma-Aldrich, polyethylene glycol 200 Bioultra). The test articles were prepared by adding a volume of […] to an appropriate weighed amount of test article in a vial, gently mixed, and then applied uniformly via a single subcutaneous dose via incision on the dorsum of female Sprague Dawley rats.
(§2) Doses were administered via an incision on the dorsal region, as a subcutaneous liquid application (suspension of powder). Each test article was administered at an amount determined by each animal's weight using the calculated mg per kg-bw (bodyweight) as shown in the table below.
(§3) The vehicle was provided as a liquid in an individual container. […] A volume of 100 μL of vehicle was added to each individual dose, allowed to soak, and shaken occasionally to uniformly mix the particles with the PEG200.
(§4) For all groups, the test article suspension was applied to the subcutaneum using a plastic spatula. The test article was distributed as evenly as possible. Incisions were closed with staples, and the animals allowed to recover. All animals received analgesia and antibiotic treatment.
(§5) Cage side observations were performed daily.

[2] = Gross evaluation of dose sites and general gross necropsy at study termination; type: in vivo, female Sprague Dawley rats; settings: rat
Experimental: Sigma-Aldrich, polyethylene glycol 200 Bioultra). […] The test article was distributed as evenly as possible. […] All animals received analgesia and antibiotic treatment. Cage side observations were performed daily.

[3] = Clinical (cage side) observations and body weight after a single subcutaneous dose; settings: rat; for tolerability as administered (summary): particles in PEG200, 114/134/161/193 mg/kg-bw (Groups 1-4)
Experimental: as §1, §2, §3, §4, §5

[4] = at study termination (after 96 h sampling)
[5] = animals that lost weight, over the course of the study
[6] = five animals per group, single subcutaneous dose
[7] = group average, single subcutaneous dose

Compound	initial spike in bupivacaine plasma concentration ([1]; FIGS. 1-2)	encapsulation at dose site ([2]; at study termination)	other dose site findings (hematoma, unknown material) ([2]; at study termination)	vascularization surrounding the incision sites (dose site observation) ([2]; at study termination)	residual test article visible at dose site [2, 4]	weight loss [3, 5]	animals that lost weight over the course of the study [3, 6]	group mean body weight change at the end of the study [3, 7] [gram]	tolerability as administered (summary) ([3]; single subcutaneous dose)	delivery of lidocaine over time (plasma lidocaine concentration versus time) [1]	initial spike in plasma lidocaine concentration [1]	residual test article visible at dose site ([2]; in vivo)	vascularization surrounding the incision sites (dose site observation) ([2]; in vivo)	weight loss ([3]; in vivo)	animals that lost weight over the course of the study ([3]; in vivo, sc)	group mean body weight change at the end of the study ([3]; in vivo, sc) [gram]	further results
CCCCN1CCCCC1C(=O)Nc1c(C)cccc1C.Cc1c(Br)cc(S(=O)(=O)O)cc1Br (centres unmarked) [B-35BrBSA-650, Bupivacaine 3,5-dibromo-4-methybenzenesulfonate salt]	without the initial spike in bupivacaine plasma concentration	No encapsulation was present	A small hematoma was present in Animal #7	very slight to slight vascularization	Small areas of residual test article were visible at or near the incision site in all animals	less than 5 % total body weight	two out of five	1	well tolerated								duration of delivery of bupivacaine (plasma bupivacaine concentration versus time) ([1]; single subcutaneous dose via dorsal incision, 650 μm particles in 100 μL PEG200, 114 (Group 1) / 134 (Group 2) mg/kg-bw, plasma to 96 h, FIGS. 1-2): greater duration of delivery of bupivacaine compared to test article 1
CCCCN1CCCCC1C(=O)Nc1c(C)cccc1C.O=S(=O)(O)c1ccc(Br)cc1 (centres unmarked) [Example B-4BrBSA-650, Bupivacaine 4-bromobenzenesulfonate salt]	initial spike in bupivacaine plasma concentration exhibited by test article 1	No additional encapsulation or residual test article was visible	Hematomas were present in Animals #2 and #4, with encapsulation of clotted blood in Animal #4	very slight to slight vascularization	No additional encapsulation or residual test article was visible	less than 5 % total body weight	two out of five	4	well tolerated								
CCN(CC)CC(=O)Nc1c(C)cccc1C.O=S(=O)(O)c1ccc(Br)cc1 [Example L-4BrBSA-650, Lidocaine 4-bromobenzenesulfonate salt]										at least 24 hours	initial spike in plasma lidocaine concentration exhibited by test article 3	No residual test article was visible	moderate to severe vascularization	less than 5 % total body weight	four out of five	−1	encapsulation size at dose site ([2]; in vivo): 0.5-3 cm; other dose site findings (hematoma, unknown material) ([2]; in vivo): Areas of an unknown brown material were present in Animal #13; survival ([3]; single subcutaneous dose, to scheduled euthanasia (96 h study)): all animals survived until scheduled euthanasia
CCN(CC)CC(=O)Nc1c(C)cccc1C.Cc1c(Br)cc(S(=O)(=O)O)cc1Br [L-35BrBSA-650, Lidocaine 3,5-dibromo-4-methybenzenesulfonate salt]									well tolerated	at least 24 hours	avoids the initial spike in plasma lidocaine concentration	No residual test article or encapsulation was visible	very slight to moderate vascularization	less than 5 % total body weight	two out of five	1	encapsulation at dose site ([2]; in vivo): No residual test article or encapsulation was visible
